This note sets out measurements from PubChem BioAssay (NCI).

Molecules are shown by their SMILES. Where “and” joins values, the source holds several entries; their conditions need not be identical. Equal values may be shown once.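 Five concentrations, 48 hours, 96-well plates. At the GI50, growth is halved. Definition used: TGI = concentration required for complete inhibition of growth.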

Holding throughout (test): growth of human tumour cells (NCI), 48 h
Assay [1] concerns RPMI-8226 leukemia.
Assay [2] has as its system SK-MEL-28 melanoma.
The subject of assay [3] is SF-268 CNS.
The test system of assay [4] is UO-31 renal.
The test system of assay [5] is CAKI-1 renal.
For assay [6], the system named is NCI-H460 lung.
Assay [7] deals with EKVX NSCLC.
Assay [8] relates to NCI-H226 lung.
Assay [9] has as its system MOLT-4 leukemia.
The subject of assay [10] is COLO 205 colon.

Consider `O=c1c(Cl)c(Cl)cnn1CCc1ccncc1`, for which the TGI is more than 100 µM in [1]; 30.7 µM in assay [2]; 40.8 µM in [3]; 36.2 µM in assay [4]; 3.99 µM in [5]; 37.8 µM in [6]. The TGI was 36.2 µM in assay [7], 84.1 µM in assay [8] and more than 100 µM in assay [9].

As for `OC(CN1CC1)C(O)CN1CC1` (configuration not stated), the GI50 in assay [2], in assay [3], in assay [4], in assay [5], in assay [6] and in assay [7] was more than 50 µg/mL each time. Further, the GI50 in [8] and in [9] was more than 50 µg/mL throughout. The TGI in assay [2], in assay [3], in assay [4], in assay [5], in assay [6] and in [7] was more than 50 µg/mL in each case. The TGI in assay [8] and in [9] was more than 50 µg/mL each time.

Turning to `CC(=O)N[C@H](C(=O)N[C@@H](CCCNC(=N)N)C(=O)N[C@@H](CCCCN)C(=O)N[C@@H](CCCNC(=N)N)C(=O)N[C@]1(C)CCCCCC/C=C\CCC[C@@](C)(C(=O)N[C@@H](CCCNC(=N)N)C(=O)N[C@@H](CCC(=O)O)C(=O)N[C@@H](CC(C)C)C(=O)N[C@H](C(=O)N[C@@H](CCC(=O)O)C(N)=O)C(C)C)NC(=O)[C@H](CCC(N)=O)NC(=O)[C@H](CC(C)C)NC(=O)[C@H](CC(C)C)NC(=O)[C@H](CCCNC(=N)N)NC(=O)[C@H](CCCNC(=N)N)NC(=O)[C@H](CC(C)C)NC1=O)C(C)C`, the GI50 in assay [1] is 6.48 µM; in assay [2], 2.64 µM; in [3] it was 1.47 µM; in [4], 11.1 µM; in assay [5], 2.06 µM; in assay [7], 1.75 µM. Further, the GI50 is 2.43 µM in [8], 8.1 µM in [9] and 1.3 µM in assay [10]. Besides, the TGI in assay [1] was found to be 20.9 µM; in assay [2] it was 21.7 µM; in assay [3], 4.58 µM; in assay [4], 47.1 µM; in assay [5] it was 11.7 µM; in assay [7], 23.2 µM. For the same molecule, the TGI was determined as 28.7 µM in assay [8], 29.4 µM in [9] and 4.54 µM in [10].

Turning to `CCC1=C[C@@H]2CN(C1)Cc1c([nH]c3ccccc13)[C@@](C(=O)OC)(c1cc3c(cc1OC)N(C)[C@H]1[C@@](O)(C(=O)OC)[C@H](OC(C)=O)[C@]4(CC)[C@@H]5C[C@@H]5CN5CC[C@]31[C@@H]54)C2`, the GI50 in assay [1] was less than 0.005 µM; in [2], less than 0.005 µM; in assay [3], < 0.005 µM and 0.0151 µM; in assay [5], 0.0319 µM and 0.0818 µM; in assay [6], less than 0.005 µM; in [8], 0.0191 µM. The GI50 in assay [9] and in [10] was less than 0.005 µM throughout. In addition, the TGI in assay [1] is 0.656 µM; in [2], 7.96 µM; in [3], 8.94 µM and 12.8 µM; in [4], 7.7 µM and 12.6 µM; in assay [5], 6.17 µM and 20.5 µM; in assay [6], 5.05 µM and 11.6 µM. The TGI in [8] was 6.57 µM; in assay [10] it was 0.00546 µM and 0.0282 µM.

As to `Cc1cc(Nc2nc(SCc3ccc(C(=O)Nc4ccc(F)cc4N)cc3)nn3cccc23)n[nH]1`, the GI50 in assay [1] is 0.514 µM; in assay [2] it was 2.83 µM; in [3], 1.12 µM; in assay [4], 1.33 µM; in assay [6], 0.395 µM; in assay [7], 0.919 µM. Also, the GI50 in assay [8] was 2.7 µM; in assay [9] it was 0.508 µM. For the same molecule, the TGI in assay [1] is 3.72 µM; in assay [2], 51.8 µM; in [3], more than 100 µM; in assay [4], 11 µM; in [6] it was more than 100 µM; in assay [7] it was 55.9 µM. Besides, the TGI in assay [8] amounted to 20.5 µM; in assay [9], 13.5 µM.

Consider `C=CCOC(=O)CC[N+]1=CCC(c2ccccc2)(c2ccccc2)O1`, for which the TGI in [2], in assay [3], in assay [4], in assay [5], in assay [6] and in [7] was more than 100 µM each time. The TGI in [8], in assay [9] and in [10] was more than 100 µM throughout.

On to `NC(=O)/C=C/C(=O)O`, for which the TGI in assay [1], in assay [2], in assay [3], in assay [4], in assay [6] and in assay [8] was more than 5000 µM each time. For the same molecule, the TGI in assay [9] and in assay [10] was more than 5000 µM each time.

Take `Cc1c(C(=O)CSc2nc3ccccc3c(=O)n2-c2ccccc2)c(=O)n(-c2ccccc2)n1C`: the TGI in assay [1] was more than 100 µM; in assay [2] it was more than 100 µM; in assay [3], more than 100 µM; in assay [4], 79.4 µM; in assay [5], 0.729 µM; in assay [6], more than 100 µM. Also, the results for the TGI in assay [8], in assay [9] and in [10] were 69.2 µM, more than 100 µM and more than 100 µM, respectively.

Take `COc1ccc(Nc2nc3ccccc3nc2-c2cccs2)cc1`: the TGI in [2], in assay [3], in assay [4], in [5], in assay [6] and in [7] was more than 100 µM each time. Further, the TGI in assay [8], in assay [9] and in assay [10] was more than 100 µM each time.

On to `CCCCCCCCCCCCCCCCCCNC(=O)[C@H]1CSC(c2cccs2)N1` (some centres not stated), for which the GI50 in [1] was 0.985 µM; in [2], 0.725 µM; in assay [3] it was 1.11 µM; in assay [4], 10.3 µM; in [5], 1.03 µM; in assay [6], 0.754 µM. Moreover, the GI50 in [8] is 1.05 µM; in assay [9], 0.974 µM; in [10] it was more than 50 µM. Also, the TGI in assay [1] is 2.41 µM; in assay [2], 1.43 µM; in assay [3], 2.34 µM; in assay [4], more than 50 µM; in [5] it was 2.09 µM; in [6], 1.69 µM. The TGI in [8] is 2.01 µM; in assay [9], 15.7 µM; in assay [10], more than 50 µM.

As to `CCOC(=O)/C(=C/c1cccc(OC)c1)N(CC)CC`, the TGI in assay [1], in [2], in assay [3], in [4], in [5] and in assay [7] was more than 100 µM each time. Besides, the TGI in assay [8], in assay [9] and in [10] was more than 100 µM each time.

Turning to `CC1(C)OC2COC3(CNO)OC(C)(C)OC3C2O1` (configuration not stated), the TGI in assay [2], in assay [3], in [4], in assay [5], in assay [6] and in assay [7] was more than 100 µM in each case. In addition, the TGI in [8], in assay [9] and in assay [10] was more than 100 µM in each case.

For `O=C(c1ccc2ccccc2c1)c1c(C(F)(F)F)n([O-])c2ccc(Cl)cc2[n+]1=O`, the GI50 in assay [1] is 0.373 µM; in assay [2], 1.63 µM; in assay [3], 1.04 µM; in assay [4], 1.29 µM; in assay [5], 1.63 µM; in assay [6], 1.75 µM. Further, the values for the GI50 in assay [7], in assay [8] and in [10] were 1.74 µM, 1.82 µM and 1.34 µM, respectively. In addition, the TGI was found to be 1.66 µM in [1]; 3.02 µM in assay [2]; 2.33 µM in assay [3]; 2.55 µM in assay [4]; 3.01 µM in assay [5]; 3.34 µM in [6]. Also, the values for the TGI in assay [7], in assay [8] and in assay [10] were 3.17 µM, 3.56 µM and 2.73 µM, respectively.

Consider `C=CCO/N=C/c1cc(NC(=S)c2ccoc2C)ccc1Cl`, for which the TGI in [1] is 12.1 µM; in assay [2], more than 100 µM; in assay [3], 36 µM; in assay [4], 19.4 µM; in [5], 23.6 µM; in assay [7] it was 29.2 µM. For the same molecule, the TGI in [8] turned out to be 41.3 µM; in assay [9], 29.4 µM; in assay [10], 27.5 µM.

For the molecule `O=C(NC12CC3CC(CC(C3)C1)C2)C(=O)c1c[nH]c2ccc(Cl)cc12`, the TGI in assay [1], in assay [2], in assay [3], in [4], in assay [6] and in assay [7] was more than 100 µM in each case. In addition, the TGI in assay [8], in assay [9] and in assay [10] was more than 100 µM each time.
